# Reference: ChEMBL document CHEMBL3400015, “Tertiary amides of Salinomycin: A new group of antibacterial agents against Bacillus anthracis and methicillin-resistant Staphylococcus epidermidis” (Bioorg Med Chem Lett, 2015)
# Calls of active or inactive are those of the source. No cut-off for these calls is given here.
# Tests used:
# Staphylococcus aureus [1] = test: Antimicrobial activity against Staphylococcus aureus ATCC 25923 after 18 hrs by twofold serial broth dilution method; type: functional; settings: ATCC 25923, 18 h
# Staphylococcus aureus [2] = test: Antimicrobial activity against Staphylococcus aureus ATCC 6538 after 18 hrs by twofold serial broth dilution method; type: functional; settings: ATCC 6538, 18 h
# Staphylococcus aureus [3] = test: Antimicrobial activity against Staphylococcus aureus […] after 18 hrs by twofold serial broth dilution method; type: functional
# Pseudomonas aeruginosa [4] = test: Antimicrobial activity against Pseudomonas aeruginosa NCTC 6749 after 18 hrs by twofold serial broth dilution method; type: functional; settings: NCTC 6749, 18 h
# [5] = tested on: Staphylococcus epidermidis; test: Bactericidal activity against Staphylococcus epidermidis ATCC 35984 after 24 hrs; type: functional; settings: ATCC 35984, 24 h, read-out: MBC99.9
# Pseudomonas aeruginosa [6] = test: Bactericidal activity against Pseudomonas aeruginosa ATCC 15442 after 24 hrs; type: functional; settings: ATCC 15442, 24 h, read-out: MBC99.9
# [7] = tested on: Staphylococcus epidermidis; test: Antimicrobial activity against methicillin-resistant Staphylococcus epidermidis isolate 405/10 after 18 hrs by twofold serial broth dilution method; type: functional; settings: isolate 405/10, 18 h
# [8] = tested on: Staphylococcus epidermidis; test: Antimicrobial activity against methicillin-resistant Staphylococcus epidermidis isolate 422/10 after 18 hrs by twofold serial broth dilution method; type: functional; settings: isolate 422/10, 18 h
# [9] = tested on: Staphylococcus epidermidis; test: Antimicrobial activity against methicillin-resistant Staphylococcus epidermidis isolate 424/10 after 18 hrs by twofold serial broth dilution method; type: functional; settings: isolate 424/10, 18 h
# [10] = tested on: Staphylococcus epidermidis; test: Antimicrobial activity against methicillin-resistant Staphylococcus epidermidis isolate 454/11 after 18 hrs by twofold serial broth dilution method; type: functional; settings: isolate 454/11, 18 h
# [11] = tested on: Staphylococcus epidermidis; test: Antimicrobial activity against methicillin-resistant Staphylococcus epidermidis isolate 455/11 after 18 hrs by twofold serial broth dilution method; type: functional; settings: isolate 455/11, 18 h
# [12] = tested on: Staphylococcus epidermidis; test: Antimicrobial activity against methicillin-resistant Staphylococcus epidermidis isolate 457/11 after 18 hrs by twofold serial broth dilution method; type: functional; settings: isolate 457/11, 18 h
# [13] = tested on: Staphylococcus epidermidis; test: Bactericidal activity against methicillin-resistant Staphylococcus epidermidis isolate 458/11 after 24 hrs; type: functional; settings: isolate 458/11, 24 h, read-out: MBC99.9
# [14] = tested on: Staphylococcus epidermidis; test: Bactericidal activity against methicillin-resistant Staphylococcus epidermidis isolate 469/11 after 24 hrs; type: functional; settings: isolate 469/11, 24 h, read-out: MBC99.9
# [15] = tested on: Staphylococcus epidermidis; test: Bactericidal activity against methicillin-resistant Staphylococcus epidermidis isolate 470/11 after 24 hrs; type: functional; settings: isolate 470/11, 24 h, read-out: MBC99.9
# [16] = tested on: Staphylococcus epidermidis; test: Inhibition of Staphylococcus epidermidis ATCC 35984 biofilm formation at 1 to 32 ug/ml after 24 hrs by MTT assay; type: functional, organism-based
# [17] = tested on: Staphylococcus epidermidis; test: Inhibition of Staphylococcus epidermidis ATCC 12228 biofilm formation at 1 to 32 ug/ml after 24 hrs by MTT assay; type: functional, organism-based
# [18] = tested on: Staphylococcus epidermidis; test: Inhibition of Staphylococcus epidermidis isolate 407/10 biofilm formation at 1 to 32 ug/ml after 24 hrs by MTT assay; type: functional, organism-based
# [19] = tested on: Staphylococcus epidermidis; test: Inhibition of Staphylococcus epidermidis isolate 409/10 biofilm formation at 1 to 32 ug/ml after 24 hrs by MTT assay; type: functional, organism-based
# [20] = tested on: Staphylococcus epidermidis; test: Inhibition of Staphylococcus epidermidis isolate 461/11 biofilm formation at 1 to 32 ug/ml after 24 hrs by MTT assay; type: functional, organism-based
# [21] = tested on: Staphylococcus epidermidis; test: Inhibition of Staphylococcus epidermidis isolate 469/11 biofilm formation at 1 to 32 ug/ml after 24 hrs by MTT assay; type: functional, organism-based
# Escherichia coli = test: Antimicrobial activity against Escherichia coli NCTC 8196 after 18 hrs by twofold serial broth dilution method; type: functional; settings: NCTC 8196, 18 h
# [22] = tested on: Staphylococcus epidermidis; test: Ratio of ciprofloxacin MIC to compound MIC for methicillin-resistant Staphylococcus epidermidis clinical isolate after 18 hrs by twofold serial broth dilution method; type: functional
Compound,MIC (Staphylococcus aureus [1]),MIC (Staphylococcus aureus [2]),MIC (Staphylococcus aureus [3]),MIC (Pseudomonas aeruginosa [4]),MBC [5],MBC (Pseudomonas aeruginosa [6]),MIC [7],MIC [8],MIC [9],MIC [10],MIC [11],MIC [12],MBC [13],MBC [14],MBC [15],MIC (Escherichia coli),Ratio [22],also measured
O=C(O)c1cn(C2CC2)c2cc(N3CCNCC3)c(F)cc2c1=O [CIPROFLOXACIN],0.5 µg/mL,0.25 µg/mL,0.5 µg/mL,0.0625 µg/mL,0.5 µg/mL,0.25 µg/mL,2 µg/mL,2 µg/mL,8 µg/mL,0.0625 µg/mL,32 µg/mL,32 µg/mL,> 256 µg/mL,128 µg/mL,0.5 µg/mL,–,–,inhibition [16]: Active; inhibition [17]: Active; inhibition [18]: Active; inhibition [19]: Active; inhibition [20]: Active; inhibition [21]: Active
CCCN(CCC)C(=O)[C@H](CC)[C@H]1CC[C@H](C)[C@H]([C@@H](C)[C@H](O)[C@H](C)C(=O)[C@H](CC)[C@H]2O[C@]3(C=C[C@@H](O)[C@]4(CC[C@@](C)([C@H]5CC[C@](O)(CC)[C@H](C)O5)O4)O3)[C@H](C)C[C@@H]2C)O1,1 µg/mL,1 µg/mL,2 µg/mL,> 256 µg/mL,256 µg/mL,> 256 µg/mL,8 µg/mL,8 µg/mL,8 µg/mL,4 µg/mL,8 µg/mL,8 µg/mL,256 µg/mL,128 µg/mL,256 µg/mL,> 256 µg/mL,40,–
CC[C@@H](C(=O)[C@@H](C)[C@@H](O)[C@H](C)[C@@H]1O[C@@H]([C@@H](CC)C(=O)N(CCO)CCO)CC[C@@H]1C)[C@H]1O[C@]2(C=C[C@@H](O)[C@]3(CC[C@@](C)([C@H]4CC[C@](O)(CC)[C@H](C)O4)O3)O2)[C@H](C)C[C@@H]1C,4 µg/mL,4 µg/mL,4 µg/mL,> 256 µg/mL,128 µg/mL,> 256 µg/mL,2 µg/mL,2 µg/mL,4 µg/mL,2 µg/mL,4 µg/mL,4 µg/mL,128 µg/mL,256 µg/mL,256 µg/mL,> 256 µg/mL,40,–
CCCCN(CCCC)C(=O)[C@H](CC)[C@H]1CC[C@H](C)[C@H]([C@@H](C)[C@H](O)[C@H](C)C(=O)[C@H](CC)[C@H]2O[C@]3(C=C[C@@H](O)[C@]4(CC[C@@](C)([C@H]5CC[C@](O)(CC)[C@H](C)O5)O4)O3)[C@H](C)C[C@@H]2C)O1,8 µg/mL,8 µg/mL,8 µg/mL,> 256 µg/mL,> 256 µg/mL,> 256 µg/mL,4 µg/mL,8 µg/mL,8 µg/mL,4 µg/mL,16 µg/mL,4 µg/mL,256 µg/mL,> 256 µg/mL,> 256 µg/mL,> 256 µg/mL,–,–
CC[C@@H](C(=O)[C@@H](C)[C@@H](O)[C@H](C)[C@@H]1O[C@@H]([C@@H](CC)C(=O)N(Cc2ccccc2)Cc2ccccc2)CC[C@@H]1C)[C@H]1O[C@]2(C=C[C@@H](O)[C@]3(CC[C@@](C)([C@H]4CC[C@](O)(CC)[C@H](C)O4)O3)O2)[C@H](C)C[C@@H]1C,8 µg/mL,16 µg/mL,32 µg/mL,> 256 µg/mL,128 µg/mL,> 256 µg/mL,8 µg/mL,16 µg/mL,16 µg/mL,8 µg/mL,32 µg/mL,16 µg/mL,> 256 µg/mL,> 256 µg/mL,> 256 µg/mL,> 256 µg/mL,–,–
